Source: publication PMC3631439 (ACS chemical biology, 2013)
“Also recorded” adds a separate entry of the source. Read-outs that look alike come from different tables or passages of the source.

Legend:
[1] = system: LNCaP human prostate cancer cells; assay: Proliferation of LNCaP cells; conditions: for inhibition of proliferation of LNCaP cells: 36 h; for block of inhibition of proliferation by PMA: PMA 30 nM co-administered
[2] = target: human GFP-PKCα (Homo sapiens, UniProt P17252); assay: Translocation of human GFP-PKCα in CHO cells; assay type: cell-based
[3] = target: PKCδ (Homo sapiens, UniProt Q05655); assay: Down regulation of PKCδ in U937 cells; assay type: cell-based
Chain of PKCδ (Q05655 whole entry): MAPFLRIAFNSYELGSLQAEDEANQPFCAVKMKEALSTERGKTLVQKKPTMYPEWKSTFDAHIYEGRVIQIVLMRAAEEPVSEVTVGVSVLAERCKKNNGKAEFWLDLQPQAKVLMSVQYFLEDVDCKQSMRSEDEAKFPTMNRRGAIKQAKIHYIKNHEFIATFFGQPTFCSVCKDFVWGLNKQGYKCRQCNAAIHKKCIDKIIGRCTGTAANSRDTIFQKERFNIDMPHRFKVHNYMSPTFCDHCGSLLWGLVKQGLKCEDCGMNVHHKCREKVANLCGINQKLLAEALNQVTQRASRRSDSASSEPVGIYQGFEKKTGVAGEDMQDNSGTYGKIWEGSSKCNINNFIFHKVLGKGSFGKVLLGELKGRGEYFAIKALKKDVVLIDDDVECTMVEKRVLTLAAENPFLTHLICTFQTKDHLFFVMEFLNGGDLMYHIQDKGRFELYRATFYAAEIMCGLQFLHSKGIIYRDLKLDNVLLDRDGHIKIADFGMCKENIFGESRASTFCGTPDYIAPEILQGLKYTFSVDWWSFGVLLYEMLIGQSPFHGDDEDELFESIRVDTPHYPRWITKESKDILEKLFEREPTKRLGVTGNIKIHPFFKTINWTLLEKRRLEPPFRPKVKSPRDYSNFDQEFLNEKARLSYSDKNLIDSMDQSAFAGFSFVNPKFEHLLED

[4] = system: TNFα secretion in U937 cells; assay: TNF-alpha secretion by U937 cells; assay type: cell-based, human
[5] = target: T1, human YFP-PKCε (Homo sapiens, UniProt Q02156); assay: Translocation of human YFP-PKCε in LNCaP cells; assay type: cell-based
T1 sequence (Q02156 1-737): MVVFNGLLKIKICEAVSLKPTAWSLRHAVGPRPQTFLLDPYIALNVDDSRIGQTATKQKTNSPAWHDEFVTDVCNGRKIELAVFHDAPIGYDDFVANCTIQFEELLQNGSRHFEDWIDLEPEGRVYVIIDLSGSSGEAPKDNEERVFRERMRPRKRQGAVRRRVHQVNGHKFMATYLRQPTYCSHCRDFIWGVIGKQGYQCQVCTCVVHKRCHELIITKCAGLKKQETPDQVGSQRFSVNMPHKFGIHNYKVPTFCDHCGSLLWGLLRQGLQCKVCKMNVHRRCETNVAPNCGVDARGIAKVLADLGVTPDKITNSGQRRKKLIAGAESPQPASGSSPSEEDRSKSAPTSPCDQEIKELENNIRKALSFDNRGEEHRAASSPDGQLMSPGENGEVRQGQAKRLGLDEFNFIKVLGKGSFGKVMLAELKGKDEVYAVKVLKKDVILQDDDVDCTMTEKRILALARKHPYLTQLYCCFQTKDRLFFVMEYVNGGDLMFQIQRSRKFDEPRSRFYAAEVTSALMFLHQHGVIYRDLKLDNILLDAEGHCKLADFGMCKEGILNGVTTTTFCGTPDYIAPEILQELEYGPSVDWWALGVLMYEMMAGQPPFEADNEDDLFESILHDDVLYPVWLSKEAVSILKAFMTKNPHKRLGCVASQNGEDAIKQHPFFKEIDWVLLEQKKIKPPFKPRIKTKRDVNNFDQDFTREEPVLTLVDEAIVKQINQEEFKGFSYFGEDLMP

[6] = system: PKC isoforms and PKD1 in LNCaP cells; assay: Subcellular fractionation of LNCaP cells; assay type: cell-based, human; conditions: 60 min
[7] = system: tumor promotion; conditions: cited from earlier work
[8] = target: T2, PKCε (Homo sapiens, UniProt Q02156); assay: Down regulation of PKCε in U937 cells; assay type: cell-based; conditions: data not shown
T2 sequence (Q02156 1-737): T1 sequence (Q02156 1-737)

[9] = target: PKCβII (Homo sapiens, UniProt P05771); assay: Down regulation of PKCβII in U937 cells; assay type: cell-based
Chain of PKCβII (P05771 1-673 isoform P05771-2): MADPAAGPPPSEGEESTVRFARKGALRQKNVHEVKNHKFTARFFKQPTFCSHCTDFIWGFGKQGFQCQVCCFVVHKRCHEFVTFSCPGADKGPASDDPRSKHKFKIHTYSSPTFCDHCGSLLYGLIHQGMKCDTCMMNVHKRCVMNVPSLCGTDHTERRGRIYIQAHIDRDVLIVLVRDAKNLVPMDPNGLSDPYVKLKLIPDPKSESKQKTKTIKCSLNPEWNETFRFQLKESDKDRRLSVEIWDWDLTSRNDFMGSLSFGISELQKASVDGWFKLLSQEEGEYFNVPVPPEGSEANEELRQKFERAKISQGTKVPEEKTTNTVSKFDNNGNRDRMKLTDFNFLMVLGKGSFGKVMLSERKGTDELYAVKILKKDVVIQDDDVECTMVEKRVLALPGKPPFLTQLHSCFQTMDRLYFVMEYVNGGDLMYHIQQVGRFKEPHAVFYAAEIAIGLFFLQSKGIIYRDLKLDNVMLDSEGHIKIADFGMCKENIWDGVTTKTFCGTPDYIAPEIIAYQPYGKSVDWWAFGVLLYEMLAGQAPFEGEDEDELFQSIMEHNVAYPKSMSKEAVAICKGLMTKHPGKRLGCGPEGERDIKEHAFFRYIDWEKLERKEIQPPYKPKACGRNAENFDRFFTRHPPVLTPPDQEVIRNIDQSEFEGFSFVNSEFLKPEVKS

[10] = target: mouse GFP-PKCδ (Mus musculus, UniProt P28867); assay: Translocation of mouse GFP-PKCδ in LNCaP cells; assay type: cell-based; conditions: 1000 nM PMA, 1000 nM bryostatin 1, 3000 nM bryostatin 7
Chain of mouse GFP-PKCδ (P28867 whole entry): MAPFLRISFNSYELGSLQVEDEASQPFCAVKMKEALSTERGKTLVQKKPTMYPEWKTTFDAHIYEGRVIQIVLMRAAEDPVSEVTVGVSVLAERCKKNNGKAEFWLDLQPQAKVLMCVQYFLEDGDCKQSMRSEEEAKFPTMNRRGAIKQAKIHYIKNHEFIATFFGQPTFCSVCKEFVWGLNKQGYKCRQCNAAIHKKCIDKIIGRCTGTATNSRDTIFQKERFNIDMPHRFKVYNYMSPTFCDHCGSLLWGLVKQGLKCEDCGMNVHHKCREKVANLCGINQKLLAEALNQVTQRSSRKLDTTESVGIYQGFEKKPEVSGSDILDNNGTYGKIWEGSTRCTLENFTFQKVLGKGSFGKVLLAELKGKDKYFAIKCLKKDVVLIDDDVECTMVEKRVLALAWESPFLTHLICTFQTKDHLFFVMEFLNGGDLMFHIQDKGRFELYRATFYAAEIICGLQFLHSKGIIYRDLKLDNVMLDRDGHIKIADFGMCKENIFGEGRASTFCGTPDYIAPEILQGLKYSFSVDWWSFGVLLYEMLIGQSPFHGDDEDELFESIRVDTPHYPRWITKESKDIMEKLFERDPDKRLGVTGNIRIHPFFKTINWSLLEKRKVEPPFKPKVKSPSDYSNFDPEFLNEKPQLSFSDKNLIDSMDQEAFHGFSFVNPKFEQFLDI

[11] = target: Mouse PKC α (Mus musculus, UniProt P20444); assay: biochemical; assay type: binding
[12] = system: TNFα secretion in LNCaP cells; assay: TNFα secretion by LNCaP cells; conditions: for inhibition of secretion of TNFα induced by PMA: 30 nM PMA; for secretion of TNFα: 24 h
[13] = system: PKC signaling in LNCaP cells; assay: PKC and downstream signaling in LNCaP cells; assay type: cell-based, human; conditions: 60 min
[14] = system: U937 leukemia cells; assay type: cell-based, human; conditions: 60 hours; for suppression of growth inhibition induced by PMA: co-administered with PMA
[15] = target: human GFP-PKCδ (Homo sapiens, UniProt Q05655); assay: Translocation of human GFP-PKCδ in LNCaP cells; assay type: cell-based; conditions: 1000 nM PMA, 1000 nM bryostatin 1, 3000 nM bryostatin 7
Chain of human GFP-PKCδ (Q05655 whole entry): as the sequence (Q05655 whole entry) above

[16] = system: U937 cells; assay type: cell-based, human; conditions: araC 1 μM, 24 h; bryostatin 1 100 nM, bryostatin 7 1000 nM
[17] = system: phorbol ester responsive genes in LNCaP cells; assay: Gene induction in LNCaP cells; assay type: cell-based, human; conditions: 6 hours, 1000 nM
[18] = system: U937 leukemia cells; assay type: cell-based, human; conditions: 60 hours; for cell attachment: U937 cells; for inhibition of attachment induced by PMA: co-administered with PMA
[19] = system: human PKC isoforms α, βII, δ, and ε
[20] = system: human platelets; conditions: cited from earlier work
[21] = system: PKC; conditions: cited from earlier work
[22] = read-out: EC50 for down regulation of PKCβII, 24 hours

SMILES: CCCCCCCCCCCCCC(=O)O[C@@H]1[C@@H](C)[C@@]2(O)[C@@H](C=C(CO)C[C@]3(O)C(=O)C(C)=C[C@@H]23)[C@@H]2C(C)(C)[C@]12OC(C)=O [PMA]
- inhibition of proliferation of LNCaP cells [1]: inhibits cellular proliferation
- translocation pattern of human GFP-PKCα ([2]; CHO cells, 1000 nM): slow but clear plasma membrane translocation
- down regulation of PKCδ ([3]; 24 hours): little down regulation
- TNFα secretion [4]: higher level of secretion
- translocation pattern of human YFP-PKCε ([5]; LNCaP cells, 1000 nM): rapid clearing of the cytoplasm with translocation of PKCε to the plasma membrane
- PKCδ in the nuclear enriched fraction [6]: increase in PKCδ in the nuclear enriched fraction
- pPKD1 in the nuclear fraction [6]: substantial accumulation in the nuclear fraction
- tumor promoting activity [7]: tumor promoter
- down regulation of PKCε [8]: little down regulation
- level of down regulation of PKCβII ([9]; 24 hours): less down regulation
- translocation pattern of mouse GFP-PKCδ [10]: initial translocation to the plasma membrane

SMILES: CC(=O)O[C@@]12C[C@@H](C)[C@@]3(O)[C@@H](C=C(CO)C[C@]4(O)C(=O)C(C)=C[C@@H]34)[C@@H]1C2(C)C [prostratin]
- tumor promoting activity [7]: inhibits tumor promotion

SMILES: CCC/C=C/C=C/C(=O)O[C@H]1/C(=C/C(=O)OC)C[C@H]2C[C@H]([C@@H](C)O)OC(=O)C[C@H](O)C[C@@H]3C[C@H](OC(C)=O)C(C)(C)[C@](O)(C[C@@H]4C/C(=C/C(=O)OC)C[C@H](/C=C/C(C)(C)[C@]1(O)O2)O4)O3 [Bryostatin 1, bryostatin 1]
- Ki [11]: 0.48 ± 0.03 nM
- inhibition of proliferation of LNCaP cells [1]: little inhibitory effect
- block of inhibition of proliferation by PMA [1]: prevents the inhibition by PMA
- translocation pattern of human GFP-PKCα ([2]; CHO cells, 1000 nM): some translocation of the human PKCα to the plasma membrane but with most forming a thick ring around the nucleus
- inhibition of secretion of TNFα induced by PMA [12]: inhibits the secretion of TNFα induced by PMA
- secretion of TNFα [12]: minimal secretion of TNFα
- PKCδ phosphorylation on Y311 [13]: inability to induce efficient PKCδ phosphorylation on Y311
- induction of PKCδ phosphorylation at S299 [13]: closely similar
- down regulation of PKCδ ([3]; 24 hours): down regulation with a biphasic dose response curve
- inhibition of U937 cell proliferation [14]: very limited, biphasic inhibition
- suppression of growth inhibition induced by PMA [14]: able to suppress the growth inhibition induced by PMA
- translocation pattern of human YFP-PKCε ([5]; LNCaP cells, 1000 nM): resembled that with PMA, albeit less extensive
- down regulation of PKCε [8]: little down regulation
- translocation pattern of human GFP-PKCδ [15]: some initial plasma membrane translocation
- synergy with araC for loss of mitochondrial membrane potential [16]: able to synergize with araC
- changes in levels of mRNA expression [17]: generally similar for bryostatin 1 and bryostatin 7 and less than they were for PMA
- cell attachment [18]: much reduced level of cell attachment compared to that induced by PMA
- inhibition of attachment induced by PMA [18]: able to inhibit the attachment induced by PMA
- DC50 [9, 22]: 0.31 ± 0.005 nM
- translocation pattern of mouse GFP-PKCδ [10]: only to the nuclear membrane and internal membranes

SMILES: COC(=O)/C=C1/C[C@H]2C[C@]3(O)O[C@H](C[C@@H](O)CC(=O)O[C@@H]([C@@H](C)O)C[C@@H]4C/C(=C\C(=O)OC)[C@H](OC(C)=O)[C@@](O)(O4)C(C)(C)/C=C/[C@@H](C1)O2)C[C@H](OC(C)=O)C3(C)C [Bryostatin 7, bryostatin 7]
- Ki [11]: 0.26 ± 0.06 nM
- inhibition of proliferation of LNCaP cells [1]: fails to inhibit proliferation
- block of inhibition of proliferation by PMA [1]: able to block the inhibition of proliferation by PMA
- selectivity among PKC isoforms [19]: little selectivity among these PKC isoforms
- translocation pattern of human GFP-PKCα [2]: pattern of translocation similar to that of bryostatin 1
- inhibition of secretion of TNFα induced by PMA [12]: inhibits the secretion of TNFα induced by PMA
- secretion of TNFα [12]: minimal secretion of TNFα
- PKCδ phosphorylation on Y311 [13]: inability to induce efficient PKCδ phosphorylation on Y311
- induction of PKCδ phosphorylation at S299 [13]: closely similar
- induction of cFos or EGR1 [13]: reduced induction of cFos or EGR1 at 60 min compared to bryostatin 1
- phosphorylation of PKD1 [13]: somewhat less phosphorylation of PKD1 than did bryostatin 1
- down regulation of PKCδ ([3]; 24 hours): resembled bryostatin 1
- potency for PKCδ down regulation, fold weaker than bryostatin 1 ([3]; 24 hours): approximately 3 fold
- EC50 ([3]; read-out: EC50 for down regulation of PKCδ, 24 hours): 0.22 ± 0.03 nM
- inhibition of U937 cell proliferation [14]: very limited, biphasic inhibition; also recorded: inhibited proliferation slightly more than did bryostatin 1
- suppression of growth inhibition induced by PMA [14]: able to suppress the growth inhibition induced by PMA
- translocation pattern of human YFP-PKCε [5]: no plasma membrane translocation
- PKCδ in the nuclear enriched fraction [6]: resembled bryostatin 1 for this response
- pPKD1 in the nuclear fraction [6]: behaved similarly to bryostatin 1
- aggregation of human platelets [20]: mimics the activity of the phorbol ester PMA in inducing aggregation of human platelets
- binding affinity towards PKC among bryostatins [21]: highest binding affinity towards PKC
- translocation pattern of human GFP-PKCδ [15]: only caused translocation of the human GFP-PKCδ to nuclear and internal membranes
- synergy with araC for loss of mitochondrial membrane potential [16]: able to synergize with araC
- changes in levels of mRNA expression [17]: generally similar for bryostatin 1 and bryostatin 7 and less than they were for PMA
- cell attachment [18]: much reduced level of cell attachment compared to that induced by PMA; also recorded: induced slightly more attachment than did bryostatin 1
- inhibition of attachment induced by PMA [18]: able to inhibit the attachment induced by PMA
- potency for PKCβII down regulation, fold weaker than bryostatin 1 ([9]; 24 hours): 3 fold
- EC50 [9, 22]: 0.97 ± 0.08 nM
- translocation pattern of mouse GFP-PKCδ [10]: only to the nuclear membrane and internal membranes

SMILES: CC(C)[C@H]1C(=O)N[C@H](CO)Cc2c[nH]c3cccc(c23)N1C [indolactam V]
- tumor promoting activity [7]: tumor promoters
